{"source": "patent US9789102B2", "about": "“H3 receptor antagonist for use in the treatment of alzheimer's disease” (SANOFI, priority 2012, dated 2017)", "origin": "cited, not measured here", "system": "protein tau hyperphosphorylation", "conditions": "2-week treatment; TAPP transgenic mice; histopathological studies; cited from earlier work"}
{"smiles": "C[C@@H]1CCCN1CCc1cc2cc(-c3ccc(C#N)cc3)ccc2o1", "note": "[ABT-239]", "values": [{"measurement": "protein tau hyperphosphorylation in the spinal cord and hippocampus", "result": "effect"}]}
